Series [1] is described as follows: Single-dose pharmacokinetics in monkeys. The note with it: male, cynomolgus monkey, 1 mg/kg.
Description: The pharmacokinetics of various test compounds were evaluated in male cynomolgus monkeys in a crossover-design. Monkeys were fasted overnight prior to PO dosing and fed 4 h post dose. A group of 1-3 animals (3 to 5 kg) received the compound by IV infusion (over 10 min) via a femoral vein and by oral gavage, with a 1-week washout between treatments. Serial blood samples (˜0.3 mL) were collected from a femoral artery at 0.17 (IV only), 0.25, 0.5, 0.75, 1, 2, 4, 6, 8, and 24 h post dose, and centrifuged at 4° C. (1500-2000×g) to obtain plasma. Samples were stored at −20° C. until analysis by LC/MS/MS.
The pharmacokinetic parameters were obtained by non-compartmental analysis of plasma concentration vs. time data (Kinetica software, Version 4.2, InnaPhase Corporation, Philadelphia, Pa.). The peak concentration (Cmax) and time for Cmax were recorded directly from experimental observations. The area under the curve from time zero to the last sampling time (AUC(0-T)) was calculated using a combination of linear and log trapezoidal summations. The total plasma clearance (CLTp), steady-state volume of distribution (Vss), apparent elimination half-life (T½) and mean residence time (MRT) were estimated after IV administration. Estimations of T½ was made using a minimum of 3 time points with quantifiable concentrations. The absolute oral bioavailability (F) was estimated as the ratio of dose-normalized AUC values following oral and IV doses.
Series [2] can be described thus: Parallel Artificial Membrane Permeability Assay (PAMPA). Particulars: pH 7.4. The format is in vitro ADME. (In general: PAMPA measures passive passage across an artificial lipid membrane.)
Description: The Parallel Artificial Membrane Permeability Assay (PAMPA) consists of a specially formulated lecithin-based lipid combination referred to as the gastrointestinal tract (GIT) lipid. The GIT lipid is used to form a membrane in a sandwich plate assembly similar to that used in the Caco-2 assays. The GIT lipid closely resembles in vivo membrane composition and performance as measured by standard compounds that are known to be passively absorbed in humans. […] The rate of passage of compounds through the PAMPA membrane is used to determine a permeability coefficient (Pc), which can be related to the in vivo passive permeability of the compound.
The permeability coefficient (Pc) of a particular compound is examined in a pH-dependent setting with apical and basolateral pH of 7.4. All experiments are conducted in triplicate determinations.
The PAMPA assay plate (donor side and acceptor side) was combined and allowed to incubate at room temperature for 4 hours. […] The donor, acceptor, reference, and blank plates were read in the SPECTRAMAX® UV plate reader. Data was captured by the pION software, which analyzes the spectra and generates Pc values.
For series [3], the target named is T1, human CCR-2 (Homo sapiens, UniProt P41597).
T1 sequence (P41597 1-360 isoform P41597-2): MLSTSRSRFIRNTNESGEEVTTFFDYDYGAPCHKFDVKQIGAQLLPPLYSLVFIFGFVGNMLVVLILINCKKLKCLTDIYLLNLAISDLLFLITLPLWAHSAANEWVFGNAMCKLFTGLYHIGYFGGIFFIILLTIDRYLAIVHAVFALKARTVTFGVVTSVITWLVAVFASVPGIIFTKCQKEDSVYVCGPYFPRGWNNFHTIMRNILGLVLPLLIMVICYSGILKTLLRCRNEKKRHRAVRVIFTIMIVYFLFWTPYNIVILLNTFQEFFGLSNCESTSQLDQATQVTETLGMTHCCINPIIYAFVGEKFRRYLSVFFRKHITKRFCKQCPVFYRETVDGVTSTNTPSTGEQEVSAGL
Description: Human CCR-2 binding assay with hPBMCs, 125I-human MCP-1 tracer. Details: hPBMCs were isolated from human leukopak; host or cells: human peripheral blood mononuclear cells. On the procedure: See also: Yoshimura et al., J. Immunol., 145:292 (1990). […] This was followed by adding 25 μl of Microscint 20 into each well. The plate was sealed and counted on the Trilux for 1 minute. […] All conditions were tested in duplicate.

The nature of series [4]: Plasma levels of Example 1 and mouse MCP-1 in the 48-hour TG peritonitis model. In kind it is in vivo. Particulars: mouse, read-out: Concentration of free Example 1 in plasma (nM) (fold IC90 CCR-2 binding). As to the method: (§1) For the 48-hour TG peritonitis study, Example 1 was dosed twice a day with the first dose one hour prior to TG injection. Total peritoneal cell counts were obtained on isolated cells by a cell counter. Cytospins were performed to determine differential leukocyte counts. The cells were stained for 3 minutes with Wright-Giemsa Stain (Sigma-Aldrich) and then rinsed with deionized water for 5 minutes. Differential counts were calculated based on a total of 200 cells counted per sample. Blood was also collected from the retro-orbital sinus at the end of each study in EDTA for determination of drug concentration.
The caveat for this estimation is that only CCR-2 and its major ligand MCP-1 were taken into consideration. The receptor occupancy of a ligand in the presence of a competitive inhibitor is defined by the Gaddum equation: […]

The test system of series [5] is monocyte/macrophage infiltration. Briefly: 48-hour thioglycollate (TG)-induced peritonitis model in hCCR-2 KI mouse. In kind it is in vivo. The note with it: for % inhibition of monocyte/macrophage infiltration: 48 h post TG. On the procedure: The hCCR-2 KI mice (C57BL/6-SVJ129) were injected intraperitoneally with 1 ml of thioglycollate (TG) (Hardy Diagnostics). For each study, eight male mice per group were used. Example 1 was dosed orally 1 hour prior to TG injection. The vehicle used was 0.01 N HCl in water. Forty-eight hours post TG injection, peritoneal lavages were performed by injecting 5 ml PBS/10 mM EDTA/10% BSA into the peritoneal cavity.
as §1
For flow cytometric analysis, peritoneal exudate cells (1×10^6) were washed once with FACS buffer (PBS/0.5% BSA) and resuspended in FACS buffer. Cells were incubated with an Fc-blocking antibody (BD Pharmingen) on ice for 15 min followed by addition of the following antibodies (BD Pharmingen): PE conjugated anti-F4/80, FITC conjugated anti-Ly6C, and Alexa 647 conjugated anti-hCCR-2. After 45 min on ice, cells were fixed by BD CYTOFIX® for 15 min on ice, washed twice with FACS buffer, and resuspended in 200 μl FACS buffer. Cellular events (40,000) were acquired for each sample and data were analyzed using FloJo software (TreeStar). A FSC/SSC gate was set to include all monocytes (low SSC, higher FSC) while excluding granulocytes from the analysis. This gated population was then analyzed for Ly6C (FITC), F4/80 (PE) expression. Peritoneal monocytes/macrophage numbers were determined by multiplying total peritoneal cell counts obtained by the cell counter and the percentage of monocytes/macrophages identified by F4/80^+ cells from flow cytometry. Statistical significance of differences between means was analyzed using the paired two-tailed t test with significance set at p values below 0.05.
Example 1 was evaluated in the hCCR-2 KI mouse TG peritonitis model to determine its EC50 in inhibiting monocyte/macrophage infiltration. Mice were administered thioglycollate, and dosed orally with Example 1 at 10, 50, or 160 mg/kg BID. Forty eight hours post TG treatment, peritoneal lavage was obtained for cellular infiltrate analysis by flow cytometry.

The target in series [6] is T1, human CCR-2. Description: 125I-mouse MCP-1 binding to human CCR-2-expressing cells (hPBMCs). Details: hPBMCs were isolated from human leukopak; host or cells: human peripheral blood mononuclear cells. The note with it: read-out: in vitro IC50 for inhibition of 125I-mouse MCP-1 binding to human CCR-2-expressing cells (hPBMCs).
In series [7] the target is T2, CCR-5 (Homo sapiens, UniProt P51681).
T2 construct: human peripheral T cells was used as a source of CCR-5; endogenous in cells; host or cells: human peripheral T cells from donors pre-screened for high CCR-5 expression
Briefly: CCR-5 whole blood CD11b upregulation. The format is cell-based. Particulars: MIP-1β 50 nM. On the procedure:
Similar procedure to the CCR-2 whole blood CD11b upregulation procedure set forth above was adopted except that MIP-1β (50 nM) was used as the ligand.

The target of series [8] is CCR-2 (Homo sapiens, UniProt P41597). Briefly: CCR-2 GTP-γS exchange, HT1080 membranes. The format is biochemical. Particulars: 1 nM MCP-1. On the procedure:
Each reaction (200 μL) contained 20 mM Na-HEPES, 10 mM MgCl2, 50 mM NaCl, 0.1% BSA (Sigma), 1% DMSO, and 10 μM GDP (pH 7.4). […] Reactions were incubated for 90 minutes hour at room temperature and [^35S]-GTPγS/Gαi complexes were collected on a Millipore MAFC 96 well filter plate. […] Data were analyzed using the ligand binding software from Graphpad Prism 4.

A word on the bioavailability: it is dose-corrected exposure relative to a reference, in per cent. For orientation: clearance means the volume of plasma or blood freed of the substance per unit of time. As a reminder, the AUC is the area under the concentration-time curve, a measure of exposure. Read a low AUC as low exposure. By Papp is commonly meant a coefficient for how fast a substance crosses the barrier. The term Ki denotes a measure of affinity in units of concentration, obtained from inhibition or displacement. Usually IC50 stands for the concentration that gives 50% inhibition.

Read-outs that look alike come from different tables or passages of the source.

T2 sequence (P51681 whole entry): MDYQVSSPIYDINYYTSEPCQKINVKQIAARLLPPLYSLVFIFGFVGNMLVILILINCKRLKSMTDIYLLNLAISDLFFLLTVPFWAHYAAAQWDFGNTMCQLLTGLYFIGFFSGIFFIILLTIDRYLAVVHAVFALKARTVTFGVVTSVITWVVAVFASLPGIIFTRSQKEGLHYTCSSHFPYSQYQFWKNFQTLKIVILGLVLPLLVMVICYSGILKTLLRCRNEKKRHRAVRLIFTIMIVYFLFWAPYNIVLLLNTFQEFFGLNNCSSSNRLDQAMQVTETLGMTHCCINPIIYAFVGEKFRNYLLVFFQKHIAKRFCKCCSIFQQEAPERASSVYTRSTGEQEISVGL
Sequence of CCR-2 (P41597 whole entry): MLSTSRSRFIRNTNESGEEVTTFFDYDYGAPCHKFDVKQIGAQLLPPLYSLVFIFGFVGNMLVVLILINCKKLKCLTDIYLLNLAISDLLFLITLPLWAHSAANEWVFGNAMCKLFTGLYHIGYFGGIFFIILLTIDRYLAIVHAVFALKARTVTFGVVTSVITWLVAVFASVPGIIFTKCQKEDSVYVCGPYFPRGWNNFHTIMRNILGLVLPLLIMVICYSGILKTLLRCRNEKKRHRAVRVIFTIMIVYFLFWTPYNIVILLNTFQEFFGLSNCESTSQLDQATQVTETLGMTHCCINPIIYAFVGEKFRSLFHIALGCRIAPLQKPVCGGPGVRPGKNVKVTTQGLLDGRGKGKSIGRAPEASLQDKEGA

For the compound `CC(=O)N[C@@H]1C[C@H](NC(C)(C)C)CC[C@@H]1N1CC[C@H](Nc2ncnc3cc(C(C)(C)C)nn23)C1=O` [Example 1, N-((1R,2 S,5R)-5-(tert-Butylamino)-2-((S)-3-(7-tert-butylpyrazolo[1,5-a][1,3,5]triazin-4-ylamino)-2-oxopyrrolidin-1-yl)cyclohexyl)acetamide], the bioavailability in series [1] (in vivo) was 63%. The compound further yielded a clearance in series [1] (plasma, intravenous) of 16.4 mL/min/kg. Besides, the AUC in series [1] (plasma, oral) worked out at 1.3 µM·h. This compound also gave a Papp at 4 h, 100 µM in series [2] of 33.6 ×10⁻⁶ cm/s. For the same compound, the Ki in series [3] (average, read-out: average Ki for binding to hCCR-2) worked out at 2 nM. In addition, the IC50 was 6.2 ± 2.7 nM in series [3] (hPBMCs, 125I-human MCP-1); 5.8 ± 2.3 nM in series [6]; 5.7 nM in series [7]; 3.5 ± 1.9 nM in series [8]. The concentration at 48 h in series [4] (hCCR-2 KI, oral, 10 mg/kg) amounted to 1.9 nM; in series [4] (hCCR-2 KI, oral, 50 mg/kg), 16.6 nM; in series [4] (hCCR-2 KI, oral, 200 mg/kg), 136 nM; in series [4] (160 mg/kg oral BID, 48 h, hCCR-2 KI mice) it was 62 nM. The “% inhibition of monocyte/macrophage infiltration” value in series [5] (10 mg/kg oral BID) worked out at 25%; in series [5] (50 mg/kg oral BID), 54%; in series [5] (160 mg/kg oral BID), 63%; in series [5] (200 mg/kg (different study), oral BID), 71%. Moreover, in series [5] (Mus musculus, estimated from four separate studies, hCCR-2 KI mouse, read-out: average EC50 for inhibition of monocyte/macrophage infiltration), the EC50 is 4.9 nM. Also, the “maximal inhibition of monocyte/macrophage infiltration reached” value in series [5] (four separate studies with multiple doses) was ~70%.

The record behind these values is patent publication US8618101B2, “N-((1R,2S,5R)-5-(tert-butylamino)-2-((S)-3-(7-tert-butylpyrazolo[1,5-a][1,3,5]triazin-4-ylamino)-2-oxopyrrolidin-1-yl)cyclohexyl)acetamide, a dual modulator of chemokine receptor activity, crystalline forms and processes” (Bristol-Myers Squibb Company, priority 2009, dated 2013).
